This is an account of results in the NIST ThermoML archive (doi:10.1016/j.fluid.2005.03.016).

For the series the following is noted: Liquid, Closed cell (Static) method.

Where “and” joins values, the source holds several entries; their conditions need not be identical. Equal entries are not always repeated. ± gives the expanded uncertainty stated by the source.

Consider `CCC(C)O` (centres undefined) [butan-2-ol], for which the “vapor or sublimation pressure” value (313.1 K) is 5.97 ± 0.4 kPa.

On to `CC(C)C` [2-methylpropane], for which the “vapor or sublimation pressure” value is, setting by setting: (313.06 K) 529.65 ± 2.3 kPa; (313.08 K) 530.05 ± 2.4 kPa and 529.95 ± 2.4 kPa; (313.1 K) 529.95 ± 2.4 kPa; (313.12 K) 530.75 ± 2.3 kPa.

For the compound `CCO` [ethanol], the “vapor or sublimation pressure” value (313.07 K) is given as 17.77 ± 0.41 kPa.

For the compound `CC(C)(C)O` [2-methylpropan-2-ol], for the setting “313.08 K”, the “vapor or sublimation pressure” value was 13.77 ± 0.41 kPa.

In the case of `CO` [methanol], the “vapor or sublimation pressure” value (313.07 K) is on record as 35.27 ± 0.43 kPa.

For the compound `CC(C)O` [propan-2-ol], the “vapor or sublimation pressure” value (313.11 K) is 13.77 ± 0.41 kPa.
